The target in assay [1] is T1, mu-opioid receptor (Homo sapiens, UniProt P35372). As to the kind of experiment: Competition binding assay (3H-DAMGO). The note with it: mu-opioid receptor expressing membranes, 0.5 nM 3H-DAMGO. The procedure: Competition Binding Assays
Mu-, kappa- or delta-opioid receptor expressing membranes (5-15 μg/well) were suspended in 50 mM Tris buffer pH 7.6 containing 5 mM MgCl2 and were incubated on 96-well plates with test compound or vehicle (1% DMSO) and either 0.5 nM ^3H-DAMGO, 0.8 nM ^3H-U-69,595 or 1.1 nM ^3H-DPDPE respectively in a total volume of 200 μL for 90 min at rt (22° C.). The contents of the wells were filtered and washed 5 times with chilled 50 mM Tris buffer pH 7.6 through H2O pre-soaked GF/B filters using a Perkin Elmer Filtermate. The filters were dried and upon application of scintillant the bound radioactive content for each well determined by scintillation counting in a Wallac TriLux Microbeta scintillation counter. Non-specific binding was determined in the presence of 2 μM Naloxone. IC50 values were determined by plotting log concentration test compound against specific binding and subsequent Ki values calculated.

Assay [2] concerns the target T1, mu-opioid receptor. As to the kind of experiment: GTPγS functional binding assay (DAMGO-stimulated). It is filed as biochemical. The note with it: mu-opioid receptor expressing membranes, agonist DAMGO 10 nM, 35S-GTPγS binding. The method, then:
GTPγS Functional Binding Assays
Mu-, kappa- or delta-opioid receptor expressing membranes (5-20 μg/well) were suspended in 50 mM HEPES buffer pH 7.6 containing 3 mM MgCl2, 120 mM NaCl, 150 pM GTPγS, 10 μg/mL saponin and 3 μM GDP (μ-opioid receptor assay) or 5 μM GDP (κ- and δ-opioid receptor assay) and were pre-incubated on 96-well plates with test compound or vehicle (1% DMSO) in a total volume of 160 μL for 10 min at rt (22° C.). Specific agonists DAMGO (10 nM final concentration), U-50,488 (30 nM final concentration) or SNC-80 (10 nM final concentration) were added respectively and the plates pre-incubated for a further 15 min at rt (22° C.) ^35S-GTPγS at a final concentration in the assay of 150 pM was then added to provide a total volume per well of 200 μL and the plates incubated for 45 min at 30° C. The contents of the wells were filtered and washed 5 times with chilled 50 mM Tris buffer pH 7.6 through H2O pre-soaked GF/B filters using a Perkin Elmer Filtermate. The filters were dried and upon application of scintillant the bound radioactive content for each well determined by scintillation counting in a Wallac TriLux Microbeta scintillation counter. Non-specific binding was determined in the presence of 10 μM GTPγS. IC50 values were determined by plotting log concentration test compound against percentage increase over non-stimulated ^35S-GTPγS binding.
On the technique in general: GTPγS resists hydrolysis and so accumulates on activated G proteins.

T1 sequence (P35372 whole entry, species assumed): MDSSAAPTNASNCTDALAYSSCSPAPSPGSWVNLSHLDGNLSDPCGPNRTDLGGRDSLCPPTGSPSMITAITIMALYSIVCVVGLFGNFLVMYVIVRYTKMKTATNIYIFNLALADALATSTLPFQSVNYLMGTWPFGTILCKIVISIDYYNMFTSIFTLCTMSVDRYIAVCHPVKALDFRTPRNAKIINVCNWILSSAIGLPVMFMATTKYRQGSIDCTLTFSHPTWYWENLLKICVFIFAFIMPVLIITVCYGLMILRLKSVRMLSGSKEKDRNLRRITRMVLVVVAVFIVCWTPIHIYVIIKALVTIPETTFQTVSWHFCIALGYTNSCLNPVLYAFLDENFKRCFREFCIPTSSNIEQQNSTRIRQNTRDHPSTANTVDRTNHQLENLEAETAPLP

In assay [1], `NC(=O)c1cccc(-c2ccc(CNCCC3C4CC5CC(C4)CC3C5)cn2)c1` (stereo not shown) [Example 84, 3-{5-[(2-Adamantan-2-ylethylamino)methyl]-pyridin-2-yl}benzamide] returned an inhibition constant (Ki) of less than 100 nM. The IC50 in assay [2] was less than 100 nM.
With `Cc1cc(CNCCC2C3CC4CC(C3)CC2C4)ccc1-c1cccc(C(N)=O)c1` (stereo not shown) [Example 46, 4′-[(2-Adamantan-2-yl-ethylamino)methyl]-2′-methylbiphenyl-3-carboxylic acid amide], the Ki in assay [1] was less than 100 nM. Moreover, in assay [2], the IC50 is less than 100 nM.

By Ki is commonly meant a dissociation constant, usually derived from enzyme kinetics or from competition with a known ligand. A higher Ki goes with weaker binding. A word on the IC50: it is the point on the concentration scale where inhibition reaches its midpoint. Read a low IC50 as higher potency.
